According to the kinase profiling compilation of Christmann-Franck et al. (2016):

Key:
Assay in all cases: radiometric filter-binding kinase assay
EPHA4 (human) = EPHA4 (human) (UniProt P54764); conditions: compound 100.0 µM; ATP 50 µM
[1] = tested on: SGK1 (human), O00141 [S422D]; conditions: compound 100.0 µM; ATP 20 µM
CDK2 CCNA2 (human) = CDK2 CCNA2 (human) (UniProt P20248+P24941); conditions: compound 100.0 µM; ATP 20 µM
PRKCA (human) = PRKCA (human) (UniProt P17252); conditions: compound 100.0 µM; ATP 20 µM
PAK6 (human) = PAK6 (human) (UniProt Q9NQU5); conditions: compound 100.0 µM; ATP 20 µM
DYRK2 (human) = DYRK2 (human) (UniProt Q92630); conditions: compound 100.0 µM; ATP 50 µM
EPHB4 (human) = EPHB4 (human) (UniProt P54760); conditions: compound 100.0 µM; ATP 5 µM
EEF2K (human) = EEF2K (human) (UniProt O00418); conditions: compound 100.0 µM; ATP 5 µM
EPHB3 (human) = EPHB3 (human) (UniProt P54753); conditions: compound 100.0 µM; ATP 20 µM
PAK7 (human) = PAK7 (human) (UniProt Q9P286); conditions: compound 100.0 µM; ATP 20 µM
ABL1 (human) = ABL1 (human) (UniProt P00519); conditions: compound 100.0 µM; ATP 5 µM
HIPK3 (human) = HIPK3 (human) (UniProt Q9H422); conditions: compound 100.0 µM; ATP 20 µM
TAOK1 (human) = TAOK1 (human) (UniProt Q7L7X3); conditions: compound 100.0 µM; ATP 20 µM
PHKG1 (human) = PHKG1 (human) (UniProt Q16816); conditions: compound 100.0 µM; ATP 50 µM
ZAP70 (human) = ZAP70 (human) (UniProt P43403); conditions: compound 100.0 µM; ATP 5 µM
MAPK11 (human) = MAPK11 (human) (UniProt Q15759); conditions: compound 100.0 µM; ATP 20 µM
PLK1 (human) = PLK1 (human) (UniProt P53350); conditions: compound 100.0 µM; ATP 5 µM
FLT1 (human) = FLT1 (human) (UniProt P17948); conditions: compound 100.0 µM; ATP 20 µM
BRSK2 (human) = BRSK2 (human) (UniProt Q8IWQ3); conditions: compound 100.0 µM; ATP 50 µM
MAPK9 (human) = MAPK9 (human) (UniProt P45984); conditions: compound 100.0 µM; ATP 20 µM
TEK (human) = TEK (human) (UniProt Q02763); conditions: compound 100.0 µM; ATP 20 µM
IKBKE (human) = IKBKE (human) (UniProt Q14164); conditions: compound 100.0 µM; ATP 50 µM
PKN2 (human) = PKN2 (human) (UniProt Q16513); conditions: compound 100.0 µM; ATP 5 µM
TBK1 (human) = TBK1 (human) (UniProt Q9UHD2); conditions: compound 100.0 µM; ATP 50 µM
MST4 (human) = MST4 (human) (UniProt Q9P289); conditions: compound 100.0 µM; ATP 20 µM
PRKCG (human) = PRKCG (human) (UniProt P05129); conditions: compound 100.0 µM; ATP 20 µM
[2] = tested on: RPS6KB1 (human), P23443 [T412E]; conditions: compound 100.0 µM; ATP 20 µM
RPS6KA3 KD1 KD2 (human) = RPS6KA3 KD1 KD2 (human) (UniProt P51812); conditions: compound 100.0 µM; ATP 50 µM
SRPK1 (human) = SRPK1 (human) (UniProt Q96SB4); conditions: compound 100.0 µM; ATP 50 µM
MELK (human) = MELK (human) (UniProt Q14680); conditions: compound 100.0 µM; ATP 50 µM
MAPK10 (human) = MAPK10 (human) (UniProt P53779); conditions: compound 100.0 µM; ATP 20 µM
NUAK1 (human) = NUAK1 (human) (UniProt O60285); conditions: compound 100.0 µM; ATP 20 µM
MAPK13 (human) = MAPK13 (human) (UniProt O15264); conditions: compound 100.0 µM; ATP 5 µM
NEK2 (human) = NEK2 (human) (UniProt P51955); conditions: compound 100.0 µM; ATP 50 µM
AURKA (human) = AURKA (human) (UniProt O14965); conditions: compound 100.0 µM; ATP 5 µM
LCK (mouse) = conditions: compound 100.0 µM; ATP 50 µM; accession and sequence are those of the human protein
CaMK1 (human) = CaMK1 (human) (UniProt Q14012); conditions: compound 100.0 µM; ATP 50 µM
[3] = biological target: STK11 CAB39 STRADA (human) (UniProt Q9Y376+Q7RTN6+Q15831); conditions: compound 100.0 µM; ATP 20 µM
CHEK2 (human) = CHEK2 (human) (UniProt O96017); conditions: compound 100.0 µM; ATP 20 µM

Sequence of IKBKE (human) (Q14164 whole entry, looked up): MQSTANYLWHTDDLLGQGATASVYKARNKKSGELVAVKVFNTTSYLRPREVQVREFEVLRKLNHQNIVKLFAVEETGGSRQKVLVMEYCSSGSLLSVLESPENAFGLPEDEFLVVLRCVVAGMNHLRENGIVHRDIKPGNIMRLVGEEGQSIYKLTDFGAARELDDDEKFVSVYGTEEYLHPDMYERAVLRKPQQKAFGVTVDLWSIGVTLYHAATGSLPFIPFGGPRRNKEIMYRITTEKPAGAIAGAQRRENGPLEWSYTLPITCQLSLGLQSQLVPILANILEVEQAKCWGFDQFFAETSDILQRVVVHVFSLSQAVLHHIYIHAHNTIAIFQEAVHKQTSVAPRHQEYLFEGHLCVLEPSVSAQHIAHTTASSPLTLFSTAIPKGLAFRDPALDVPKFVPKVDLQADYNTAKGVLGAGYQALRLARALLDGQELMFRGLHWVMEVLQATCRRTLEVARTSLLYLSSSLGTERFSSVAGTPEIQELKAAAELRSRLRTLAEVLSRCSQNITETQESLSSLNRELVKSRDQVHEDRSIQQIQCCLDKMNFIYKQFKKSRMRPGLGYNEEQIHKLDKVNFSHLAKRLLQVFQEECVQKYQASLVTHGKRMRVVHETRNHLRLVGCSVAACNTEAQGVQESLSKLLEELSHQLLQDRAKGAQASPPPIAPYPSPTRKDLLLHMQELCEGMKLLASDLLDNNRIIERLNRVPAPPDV
Sequence of NEK2 (human) (P51955 whole entry, looked up): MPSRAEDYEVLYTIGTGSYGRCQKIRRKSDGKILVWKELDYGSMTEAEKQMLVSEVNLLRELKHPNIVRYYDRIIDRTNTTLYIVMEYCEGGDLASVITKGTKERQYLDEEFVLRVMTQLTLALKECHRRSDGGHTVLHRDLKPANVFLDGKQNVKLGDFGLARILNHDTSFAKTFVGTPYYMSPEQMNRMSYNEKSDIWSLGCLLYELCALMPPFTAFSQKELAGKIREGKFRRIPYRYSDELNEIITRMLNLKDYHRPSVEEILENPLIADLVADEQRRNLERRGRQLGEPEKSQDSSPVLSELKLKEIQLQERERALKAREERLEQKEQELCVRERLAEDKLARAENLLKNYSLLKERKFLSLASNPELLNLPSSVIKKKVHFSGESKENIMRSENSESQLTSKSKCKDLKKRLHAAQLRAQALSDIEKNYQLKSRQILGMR
Sequence of PLK1 (human) (P53350 whole entry, looked up): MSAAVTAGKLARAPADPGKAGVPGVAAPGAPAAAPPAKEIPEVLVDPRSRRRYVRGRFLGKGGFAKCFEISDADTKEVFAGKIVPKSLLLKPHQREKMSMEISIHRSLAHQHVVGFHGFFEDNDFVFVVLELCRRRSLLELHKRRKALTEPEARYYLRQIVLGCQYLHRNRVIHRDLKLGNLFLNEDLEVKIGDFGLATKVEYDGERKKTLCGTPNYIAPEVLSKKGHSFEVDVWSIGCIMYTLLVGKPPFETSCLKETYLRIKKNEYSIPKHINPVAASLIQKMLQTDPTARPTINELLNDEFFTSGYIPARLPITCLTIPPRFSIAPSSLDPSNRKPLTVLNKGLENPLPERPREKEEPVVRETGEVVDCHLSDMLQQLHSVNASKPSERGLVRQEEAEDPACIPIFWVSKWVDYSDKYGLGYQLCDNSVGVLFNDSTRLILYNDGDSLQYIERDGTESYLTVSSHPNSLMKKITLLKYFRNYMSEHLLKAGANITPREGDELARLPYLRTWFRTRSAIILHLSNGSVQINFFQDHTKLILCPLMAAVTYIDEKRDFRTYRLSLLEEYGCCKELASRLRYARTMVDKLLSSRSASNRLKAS
Sequence of SRPK1 (human) (Q96SB4 whole entry, looked up): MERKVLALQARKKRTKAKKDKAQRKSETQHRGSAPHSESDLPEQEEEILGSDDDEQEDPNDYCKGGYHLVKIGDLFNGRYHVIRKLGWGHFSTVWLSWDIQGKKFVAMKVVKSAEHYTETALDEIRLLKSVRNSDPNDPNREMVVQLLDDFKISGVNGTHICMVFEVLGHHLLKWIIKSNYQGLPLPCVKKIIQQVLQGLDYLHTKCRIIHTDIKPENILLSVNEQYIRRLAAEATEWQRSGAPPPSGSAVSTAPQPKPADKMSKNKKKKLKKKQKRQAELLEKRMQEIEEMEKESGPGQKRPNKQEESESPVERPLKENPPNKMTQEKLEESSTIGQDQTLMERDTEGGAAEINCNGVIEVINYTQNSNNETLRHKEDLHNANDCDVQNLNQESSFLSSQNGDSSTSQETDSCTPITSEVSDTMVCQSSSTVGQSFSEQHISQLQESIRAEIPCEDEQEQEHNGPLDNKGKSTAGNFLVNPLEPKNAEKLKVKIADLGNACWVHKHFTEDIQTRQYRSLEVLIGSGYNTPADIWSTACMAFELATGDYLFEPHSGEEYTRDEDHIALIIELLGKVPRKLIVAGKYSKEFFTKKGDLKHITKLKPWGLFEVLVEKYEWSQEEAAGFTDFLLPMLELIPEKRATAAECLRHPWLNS
Sequence of CaMK1 (human) (Q14012 whole entry, looked up): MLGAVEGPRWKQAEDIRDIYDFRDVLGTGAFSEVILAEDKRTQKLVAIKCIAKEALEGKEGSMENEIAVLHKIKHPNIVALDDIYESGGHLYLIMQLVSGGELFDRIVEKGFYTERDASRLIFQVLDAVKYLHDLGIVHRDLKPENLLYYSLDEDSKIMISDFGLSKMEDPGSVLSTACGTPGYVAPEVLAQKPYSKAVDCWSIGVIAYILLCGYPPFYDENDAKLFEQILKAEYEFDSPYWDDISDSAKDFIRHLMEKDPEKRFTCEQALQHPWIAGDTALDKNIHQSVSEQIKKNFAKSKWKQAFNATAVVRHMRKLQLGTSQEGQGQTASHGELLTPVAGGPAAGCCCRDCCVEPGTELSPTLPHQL
Sequence of DYRK2 (human) (Q92630 whole entry, looked up): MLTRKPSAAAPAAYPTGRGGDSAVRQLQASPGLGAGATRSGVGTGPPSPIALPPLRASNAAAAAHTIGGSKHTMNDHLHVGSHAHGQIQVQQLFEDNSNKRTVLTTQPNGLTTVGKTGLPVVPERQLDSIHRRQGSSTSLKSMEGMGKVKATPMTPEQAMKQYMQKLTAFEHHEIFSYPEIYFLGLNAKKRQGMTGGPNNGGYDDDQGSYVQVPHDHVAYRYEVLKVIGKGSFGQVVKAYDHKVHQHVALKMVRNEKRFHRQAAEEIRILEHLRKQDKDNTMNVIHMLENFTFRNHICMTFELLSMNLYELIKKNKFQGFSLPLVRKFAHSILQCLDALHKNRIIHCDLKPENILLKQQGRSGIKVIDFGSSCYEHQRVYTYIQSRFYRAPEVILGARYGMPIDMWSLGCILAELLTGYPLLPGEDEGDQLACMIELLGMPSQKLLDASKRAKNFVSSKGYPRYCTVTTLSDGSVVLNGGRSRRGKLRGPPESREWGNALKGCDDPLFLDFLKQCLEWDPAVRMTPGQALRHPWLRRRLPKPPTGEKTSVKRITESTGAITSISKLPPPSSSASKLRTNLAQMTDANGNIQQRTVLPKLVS
Sequence of HIPK3 (human) (Q9H422 whole entry, looked up): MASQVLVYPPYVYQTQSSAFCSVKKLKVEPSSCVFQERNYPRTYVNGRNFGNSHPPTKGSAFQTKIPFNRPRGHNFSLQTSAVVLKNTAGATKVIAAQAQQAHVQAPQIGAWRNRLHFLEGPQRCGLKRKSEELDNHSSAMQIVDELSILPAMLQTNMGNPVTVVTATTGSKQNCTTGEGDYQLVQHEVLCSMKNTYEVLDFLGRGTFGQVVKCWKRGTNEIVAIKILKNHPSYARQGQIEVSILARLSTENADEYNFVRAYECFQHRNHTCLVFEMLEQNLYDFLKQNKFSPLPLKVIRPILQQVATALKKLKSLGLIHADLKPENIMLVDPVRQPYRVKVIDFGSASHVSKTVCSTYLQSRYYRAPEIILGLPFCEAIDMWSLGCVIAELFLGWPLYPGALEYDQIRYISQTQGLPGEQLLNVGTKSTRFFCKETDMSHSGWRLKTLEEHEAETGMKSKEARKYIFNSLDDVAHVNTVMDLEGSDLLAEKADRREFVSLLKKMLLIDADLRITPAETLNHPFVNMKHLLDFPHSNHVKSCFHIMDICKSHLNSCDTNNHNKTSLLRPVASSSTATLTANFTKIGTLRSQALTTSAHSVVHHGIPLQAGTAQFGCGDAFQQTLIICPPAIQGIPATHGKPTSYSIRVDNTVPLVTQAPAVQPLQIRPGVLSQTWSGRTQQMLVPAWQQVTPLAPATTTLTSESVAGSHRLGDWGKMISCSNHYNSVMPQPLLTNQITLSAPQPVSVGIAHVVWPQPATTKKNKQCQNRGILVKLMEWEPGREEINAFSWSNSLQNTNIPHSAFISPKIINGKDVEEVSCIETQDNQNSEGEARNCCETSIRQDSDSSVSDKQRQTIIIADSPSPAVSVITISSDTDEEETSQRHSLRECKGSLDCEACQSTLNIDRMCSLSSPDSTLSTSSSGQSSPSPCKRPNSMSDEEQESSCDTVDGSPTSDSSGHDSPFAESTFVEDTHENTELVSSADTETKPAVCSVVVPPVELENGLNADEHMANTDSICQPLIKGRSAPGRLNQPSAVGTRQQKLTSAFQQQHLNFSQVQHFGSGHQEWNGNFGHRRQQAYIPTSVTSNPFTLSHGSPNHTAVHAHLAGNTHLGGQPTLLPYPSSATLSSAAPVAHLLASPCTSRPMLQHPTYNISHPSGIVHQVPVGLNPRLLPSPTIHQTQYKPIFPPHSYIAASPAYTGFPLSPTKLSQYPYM
Sequence of SGK1 (human), O00141 [S422D] (O00141 whole entry S422D, looked up): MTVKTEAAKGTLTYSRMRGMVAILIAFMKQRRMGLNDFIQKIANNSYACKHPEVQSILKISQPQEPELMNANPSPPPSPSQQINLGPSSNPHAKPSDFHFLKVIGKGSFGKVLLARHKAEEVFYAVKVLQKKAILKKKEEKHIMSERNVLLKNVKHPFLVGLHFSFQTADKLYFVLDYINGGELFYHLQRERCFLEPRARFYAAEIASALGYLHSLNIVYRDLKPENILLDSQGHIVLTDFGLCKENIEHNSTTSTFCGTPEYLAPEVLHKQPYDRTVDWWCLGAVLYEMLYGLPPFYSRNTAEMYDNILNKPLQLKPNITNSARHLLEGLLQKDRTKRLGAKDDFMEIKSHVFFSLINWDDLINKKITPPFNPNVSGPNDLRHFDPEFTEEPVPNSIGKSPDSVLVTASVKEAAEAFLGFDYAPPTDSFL

inhibition (EPHA4 (human)) | inhibition [1] | inhibition (CDK2 CCNA2 (human)) | inhibition (PRKCA (human)) | inhibition (PAK6 (human)) | inhibition (DYRK2 (human)) | inhibition (EPHB4 (human)) | inhibition (EEF2K (human)) | inhibition (EPHB3 (human)) | inhibition (PAK7 (human)) | inhibition (ABL1 (human)) | inhibition (HIPK3 (human)) | inhibition (TAOK1 (human)) | inhibition (PHKG1 (human)) | inhibition (ZAP70 (human)) | inhibition (MAPK11 (human)) | inhibition (PLK1 (human)) | inhibition (FLT1 (human)) | inhibition (BRSK2 (human)) | inhibition (MAPK9 (human)) | SMILES | further results
4% | 0% | 14% | 0% | 20% | 6% | 13% | 0% | 90% | 0% | 11% | 1% | 0% | 10% | 0% | 3% | 0% | 0% | 22% | 10% | CC(C)(C)Nc1c(COCc2ccccc2)nc2[nH]cnn12 | inhibition (TEK (human)): 0%; inhibition (IKBKE (human)): 0%; inhibition (PKN2 (human)): 16%; inhibition (TBK1 (human)): 9%; inhibition (MST4 (human)): 0%; inhibition (PRKCG (human)): 8%; inhibition [2]: 0%; inhibition (RPS6KA3 KD1 KD2 (human)): 48%; inhibition (SRPK1 (human)): 3%; inhibition (MELK (human)): 16%; inhibition (MAPK10 (human)): 0%; inhibition (NUAK1 (human)): 20%; inhibition (MAPK13 (human)): 0%; inhibition (NEK2 (human)): 6%; inhibition (AURKA (human)): 5%; inhibition (LCK (mouse)): 5%; inhibition (CaMK1 (human)): 83%; inhibition [3]: 0%; inhibition (CHEK2 (human)): 19%
16% | 1% | 0% | 2% | 6% | 19% | 5% | 11% | 5% | 3% | 4% | 0% | 0% | 44% | 9% | 23% | 10% | 31% | 27% | 11% | O=C(Nc1cnc2[nH]ccn2c1=O)c1ccccc1 | inhibition (TEK (human)): 0%; inhibition (IKBKE (human)): 3%; inhibition (PKN2 (human)): 0%; inhibition (TBK1 (human)): 14%; inhibition (MST4 (human)): 7%; inhibition (PRKCG (human)): 0%; inhibition [2]: 4%; inhibition (RPS6KA3 KD1 KD2 (human)): 10%; inhibition (SRPK1 (human)): 14%; inhibition (MELK (human)): 2%; inhibition (MAPK10 (human)): 0%; inhibition (NUAK1 (human)): 0%; inhibition (MAPK13 (human)): 0%; inhibition (NEK2 (human)): 6%; inhibition (AURKA (human)): 6%; inhibition (LCK (mouse)): 23%; inhibition (CaMK1 (human)): 11%; inhibition [3]: 0%; inhibition (CHEK2 (human)): 32%
